These results are taken from US20150080462A1, “COMPOSITIONS AND METHODS FOR THE TREATMENT OR PREVENTION OF DISORDERS RELATING TO OXIDATIVE STRESS” (THE JOHNS HOPKINS UNIVERSITY, priority 2005, published 2015).

The subject of data set [1] is MCAO induced brain injury. Put plainly: Corrected infarct volume (TTC) after MCAO, EC treatment. Type of data set: in vivo, mouse. The procedure:
After 24 or 72 h of reperfusion, mice were anesthetized, and their brains dissected out and cut into 2-mm coronal sections. Brain slices were stained with 2,3,5-triphenyltetrazolium chloride (TTC, Sigma Co, St. […] Cerebral cortex and striatum volumes in ipsilateral necrotic lesion and contralateral normal side of the brain were measured multiplying the sum of the areas by the distance between sections. Infarct volume was indirectly calculated by subtracting the volume of intact tissue in the ipsilateral hemisphere from that of the contralateral hemisphere and expressed as the percentage of infarct area to the total hemispheric area for each slice. Epicatechin (EC) was given orally (per kilogram of body weight) through gavage and precautions were taken not only to minimize the stress to animals but also careful administration of the drug solution. For pre-treatment studies, a single dose of EC was given 90 minutes before middle cerebral artery occlusion (MCAO). […] MCAO procedure was slightly modified from the methods previously published by Shah et al. (Shah, et al. in press, 2006). […] To measure relative cerebral blood flow (CBF), mice were placed in a porcine posture on a temperature controlled heat blanket (37° C.). Under an operating microscope, a 0.5-mm diameter microfiber was glued to the skull (over the area of parietal cortex) with cyanoacrylate glue (Super Glue Gel, Ross Products, Inc.) approximately 6 mm lateral and 1 mm posterior of bregma and connected to a laser-Doppler flowmeter (DRT4, Moor Instruments Ltd, Devon, England). Mice were allowed to return to supine position and a neck midline-incision was made to expose the right common carotid artery (CCA), external carotid artery (ECA), and internal carotid arteries (ICA) after dissecting in through out thyroid glands. All the arteries were separated from the vagus nerve. A specially devised method for making 7-0 Ethilon nylon filament (Ethicon, Inc., Somarville, N.J.) with 5 mm of the tip coated with silicone (Cutter Sil Light and Universal Hardener, Heraeus Kulzer, GmbH, Hanau, Germany) was employed and the filament was introduced into the ICA through the ECA stump to block the blood circulation to MCA or circle of Willis. The filament was carefully advanced up to 11 mm from the carotid artery bifurcation or until resistance was felt. […] CFB was monitored for up to 5 minutes and mice not attaining the required drop were terminated from the study. Cortical perfusion values were expressed as a percentage relative to baseline. Animals were shifted to a humidity/temperature-controlled chamber at 32° C. to maintain the body temperature during the 90 minutes of MCA occlusion, at 37° C. For reperfusion mice were briefly anesthetizing and filament was withdrawn. After suturing the neck, midline wound mice were again returned to a humidity/temperature-controlled chamber for 2 h to maintain the body temperature at 37° C. and then later shifted to their respective cages.

In data set [2] the test system is MCAO induced brain injury. The data set can be described thus: Neurological deficit score after MCAO, EC treatment. To be noted: for NDS: HO1WT mice. Type of data set: in vivo, mouse. The source says:
Motor deficits were graded by sensorimotor performance or neurological score by the method of Longa et al. (Stroke. 20:84-91.1989). […] (1) no deficit, (2) forelimb weakness, (3) inability to bear weight on the affected side, (4) no spontaneous motor activity. Epicatechin (EC) was given orally (per kilogram of body weight) through gavage and precautions were taken not only to minimize the stress to animals but also careful administration of the drug solution. For pre-treatment studies, a single dose of EC was given 90 minutes before middle cerebral artery occlusion (MCAO). […] MCAO procedure was slightly modified from the methods previously published by Shah et al. (Shah, et al. in press, 2006). […] To measure relative cerebral blood flow (CBF), mice were placed in a porcine posture on a temperature controlled heat blanket (37° C.). Under an operating microscope, a 0.5-mm diameter microfiber was glued to the skull (over the area of parietal cortex) with cyanoacrylate glue (Super Glue Gel, Ross Products, Inc.) approximately 6 mm lateral and 1 mm posterior of bregma and connected to a laser-Doppler flowmeter (DRT4, Moor Instruments Ltd, Devon, England). Mice were allowed to return to supine position and a neck midline-incision was made to expose the right common carotid artery (CCA), external carotid artery (ECA), and internal carotid arteries (ICA) after dissecting in through out thyroid glands. All the arteries were separated from the vagus nerve. A specially devised method for making 7-0 Ethilon nylon filament (Ethicon, Inc., Somarville, N.J.) with 5 mm of the tip coated with silicone (Cutter Sil Light and Universal Hardener, Heraeus Kulzer, GmbH, Hanau, Germany) was employed and the filament was introduced into the ICA through the ECA stump to block the blood circulation to MCA or circle of Willis. The filament was carefully advanced up to 11 mm from the carotid artery bifurcation or until resistance was felt. […] CFB was monitored for up to 5 minutes and mice not attaining the required drop were terminated from the study. Cortical perfusion values were expressed as a percentage relative to baseline. Animals were shifted to a humidity/temperature-controlled chamber at 32° C. to maintain the body temperature during the 90 minutes of MCA occlusion, at 37° C. For reperfusion mice were briefly anesthetizing and filament was withdrawn. After suturing the neck, midline wound mice were again returned to a humidity/temperature-controlled chamber for 2 h to maintain the body temperature at 37° C. and then later shifted to their respective cages.

Data set [3] can be described thus: Physiological parameters (pH, PaCO2, PaO2) of mice treated with vehicle and EC. The class given is in vivo, mouse. The conditions noted are these: different drug concentrations and vehicle. The procedure:
In a separate cohort of mice (5 WT; 5 Nrf2^−/−) that underwent an identical stroke protocol, including CBF monitoring, blood samples were collected through a PE-10 femoral artery catheter (Intramedic; BD Diagnostic Systems, Sparks, Md.) 30 minutes before MCAO, 1 hour after initiation of MCAO, and 1 hour after reperfusion. The blood was evaluated for pH, PaO2, and PaCO2 via blood gas analysis (Rapidlab 248; Chiron Diagnostic Corporation, Norwood, Mass.). In some experiments, blood was drawn intermittently at different intervals of time; 30 minutes before MCAO, 1 h after the initiation of MCAO, and 1 h after reperfusion.

A further data set relates to HO1 WT mice. Put plainly: 72 h survival after MCAO, EC post-treatment. Type of data set: in vivo, mouse. To be noted: EC 30 mg/kg after 2 h or 4.5 h of reperfusion, 10 survived with vehicle.
For data set [4] the following is noted: previous toxicological studies (Galati et al 2006); cited from earlier work.

As for `Oc1cc(O)c2c(c1)O[C@H](c1ccc(O)c(O)c1)[C@H](O)C2` [EC, (−)-Epicatechin], the corrected infarct volume was found to be 33.8±3.3% in data set [1] (HO1 WT mice, EC 2.5 mg/kg oral 90 min before MCAO, 24 h reperfusion, not significant); 28.8±2.9% in data set [1] (HO1 WT mice, EC 5 mg/kg oral 90 min before MCAO, 24 h reperfusion); 24.9±3.8% in data set [1] (HO1 WT mice, EC 15 mg/kg oral 90 min before MCAO, 24 h reperfusion); 20.1±2.7% in data set [1] (HO1 WT mice, EC 30 mg/kg oral 90 min before MCAO (90 min), 24 h reperfusion, vehicle 34.2±3.4%); 43.0±2.4 in data set [1] (Nrf2−/− mice, EC 30 mg/kg 90 min before MCAO, 24 h reperfusion, vehicle 44.8±4.6, not significant, in %). Moreover, the infarct volume is 33.5±3.2 in data set [1] (HO1 WT mice, EC 30 mg/kg after 2 h of reperfusion, 72 h, vehicle 46.6±5.3, in %); 33.8±3.2% in data set [1] (HO1−/− mice, EC 30 mg/kg 90 min before MCAO, 24 h reperfusion, vehicle 37.1±3.9%, not significant); 24.1±1.8% in data set [1] (Nrf2 WT mice, EC 30 mg/kg 90 min before MCAO, 24 h reperfusion, vehicle 31.3±1.9%). For the same molecule, the infarction volume in data set [1] (HO1WT mice, EC 30 mg/kg post-treatment (3.5 h after MCAO), 72 h survival, vehicle 46.6±5.3%) is 33.5±3.2%. The neurological deficit score in data set [2] (HO1 WT mice, EC 2.5 mg/kg pre-treatment, no difference vs vehicle) came to 3.3±0.29; in data set [2] (HO1 WT mice, EC 5 mg/kg pre-treatment) it was 3±0.35; in data set [2] (HO1 WT mice, EC 15 mg/kg pre-treatment), 2.7±0.39; in data set [2] (HO1 WT mice, EC 30 mg/kg at 3.5 h, scored at 24 h of reperfusion, vehicle 3.5±0.26), 2.8±0.3; in data set [2] (HO1 WT mice, EC 30 mg/kg at 6 h, scored at 24 h of reperfusion, vehicle 3.5±0.26), 1.8±0.1; in data set [2] (HO1 WT mice, EC 30 mg/kg pre-treatment), 2.5±0.25. For the same molecule, the neurological deficit score in data set [2] (Nrf2 WT mice, EC 30 mg/kg pre-treatment, 24 h, vehicle 3.1±0.26) turned out to be 2.3±0.1; in data set [2] (Nrf2−/− mice, EC 30 mg/kg pre-treatment, 24 h, vehicle 3.5±0.1, not significant), 3.4±0.17. The NDS in data set [2] (EC 30 mg/kg 6 h post-treatment, vehicle 2.3±0.16, not significant) stood at 1.8±0.1; in data set [2] (EC 30 mg/kg post-treatment (3.5 h after MCAO), vehicle 2.3±0.1) it was 1.8±0.1. Besides, in data set [3], the “physiological parameters (pH, PaCo2, Pao2) vs vehicle” value is on record as “no differences”. The “mice surviving 72 h (of 12 per group)” value in the data set on HO1 WT mice was found to be 12 mice. Moreover, the safe dose entry in data set [4] is given as “up to 150 mg”.
